Experimental data taken from patent US6727390B2, “Fluorous phosphines and phosphine oxides” (University of Pittsburgh, priority 2001, dated 2004).

Assays:
[1] = Liquid-liquid partition coefficients between FC-72 and organic solvents (partitioning followed by HPLC analysis); type: physicochemical; details: room temperature; for Partition coefficient FC-72/THF (P = cfluorous phase/corganic phase): 50/50 (v/v) FC-72/THF; for Partition coefficient FC-72/methanol (P = cfluorous phase/corganic phase): 50/50 (v/v) FC-72/methanol; for Partition coefficient FC-72/toluene (P = cfluorous phase/corganic phase): 50/50 (v/v) FC-72/toluene
Procedure: Liquid-liquid partition coefficients for all six phosphines between FC-72 and three organic solvents (methanol, THF, and toluene) were also measured. The procedure involved a simple partitioning followed by HPLC analysis.

| SMILES | melting point [°C] | Partition coefficient FC-72/THF (P = cfluorous phase/corganic phase) [1] | Partition coefficient FC-72/methanol (P = cfluorous phase/corganic phase) [1] | Partition coefficient FC-72/toluene (P = cfluorous phase/corganic phase) [1] |
| --- | --- | --- | --- | --- |
| FC(F)(F)C(F)(F)C(F)(F)C(F)(F)C(F)(F)C(F)(F)CCc1ccc(P(c2ccc(CCC(F)(F)C(F)(F)C(F)(F)C(F)(F)C(F)(F)C(F)(F)F)cc2)c2ccc(CCC(F)(F)C(F)(F)C(F)(F)C(F)(F)C(F)(F)C(F)(F)F)cc2)cc1 [Compound 1a, Tris-[4-(3,3,4,4,5,5,6,6,7,7,8,8,8-tridecafluorooctyl)phenyl]phosphane] | 49.9 to 52.4 | 0.08 | 30.03 | 0.75 |
| FC(F)(F)C(F)(F)C(F)(F)C(Cc1ccc(P(c2ccccc2)c2ccccc2)cc1)(C(F)(F)F)C(F)(F)F [Compound 5c, Diphenyl-[4-(3,3,4,4,5,5,5-heptafluoro-2,2-bis-trifluoromethylpentyl)phenyl]phosphane] |  | 0.01 | 0.09 | 0.12 |
| FC(F)(F)C(F)(F)C(F)(F)C(Cc1ccc(P(c2ccc(CC(C(F)(F)F)(C(F)(F)F)C(F)(F)C(F)(F)C(F)(F)F)cc2)c2ccc(CC(C(F)(F)F)(C(F)(F)F)C(F)(F)C(F)(F)C(F)(F)F)cc2)cc1)(C(F)(F)F)C(F)(F)F [Compound 5a, Tris-[4-(3,3,4,4,5,5,5-heptafluoro-2,2-bis-trifluoromethylpentyl)phenyl]phosphane] |  | 0.51 | 18.48 | 6.84 |
| FC(F)(F)C(F)(F)C(F)(F)C(F)(F)C(F)(F)C(F)(F)CCc1ccc(P(c2ccccc2)c2ccc(CCC(F)(F)C(F)(F)C(F)(F)C(F)(F)C(F)(F)C(F)(F)F)cc2)cc1 [Compound 1b, Phenyl-bis-[4-(3,3,4,4,5,5,6,6,7,7,8,8,8-tridecafluorooctyl)phenyl]phosphane] | 42.1 to 43.1 | 0.05 | 1.86 | 0.05 |
| FC(F)(F)C(F)(F)C(F)(F)C(F)(F)C(F)(F)C(F)(F)CCc1ccc(P(c2ccccc2)c2ccccc2)cc1 [Compound 1c, Diphenyl-[4-(3,3,4,4,5,5,6,6,7,7,8,8,8-tridecafluorooctyl)phenyl]phosphane] |  | 0.02 | 0.12 | 0.05 |
| FC(F)(F)C(F)(F)C(F)(F)C(Cc1ccc(P(c2ccccc2)c2ccc(CC(C(F)(F)F)(C(F)(F)F)C(F)(F)C(F)(F)C(F)(F)F)cc2)cc1)(C(F)(F)F)C(F)(F)F [Compound 5b, Phenyl-bis-[4-(3,3,4,4,5,5,5-heptafluoro-2,2-bis-rifluoromethylpentyl)phenyl]phosphane] |  | 1.05 | 3.34 | 0.18 |
